Reference: US20060008483A1, “Dispersions of lipids for use as therapeutic and cosmetic agents and intracellular delivery vehicles” (Biotech Tools SA, priority 2002, published 2006)

Assays:
[1] = system: Chinese hamster Ovary cells or K562 human myeloid cells; conditions: MLV, WO 95/17378; cited from earlier work
[2] = system: COS-7L cells (monkey fibroblasts); assay: Transfection of fibroblast cells with micellar dispersions of an amidinium salt, beta-galactosidase activity assay; format: cell-based; conditions: pCMV-β plasmid, relative to Lipofectamine plus, 3 h + 20 h incubation
Description: Functional transfection efficiency was then measured by means of a beta-galactosidase (hereinafter referred as β-GAL) activity assay as follows: cells were lysed by adding 250 μl of a lysis buffer (0.1 M potassium phosphate, 0.5% Triton® X-100, 0.1% deoxycholate, pH 7.0). The cell lysate (50 μl) was mixed with 50 μl o-nitrophenyl-β-D-galactopyranoside (1.54 mg/ml in 0.1 potassium phosphate buffer, pH 7.0) and incubated at 37° C. for 30 minutes. The reaction was terminated by adding 160 μl of 1 M Na2CO3 and absorbance was determined using a spectrophotometer at 405 nm. β-GAL activity was calculated using a β-GAL standard curve.
Immediately before the transfection experiments, the amidinium salt of Example 9 was dissolved at a concentration of 0.1 mg/mL in water containing 5.0 g/l glucose and 0.1 mg/mL protamine sulfate. The solution was successively vortexed, heated during 15 minutes at 50° C. and then cooled at 20° C.
COS-7L cells (monkey fibroblasts) were grown in DMEM supplemented with 10% heat inactivated foetal bovine serum and penicellin 100 IU/mL-streptomycin 100 μg/mL, and were maintained at 37° C. in a humidified 5% incubator. […]
(§1) Transfection efficiency was measured in terms of beta-galactosidase activity using the beta-galactosidase activity assay described in Example 5 above. Cytotoxicity was determined as described in Example 2 above.

[3] = system: COS-7L cells (monkey fibroblasts); assay: Cytotoxicity in the micellar transfection experiment, determined as in Example 2; format: cell-based; conditions: transfection conditions of Example 12
Description: The resulting titrated liposomes were cooled and then passed through a 0.2 μm filter (in order to eliminate large particles) and an average liposome size of 90 nm was measured. Filtered liposomes were then packed in sterile vials and stored at 4° C. […] Cytotoxicity was determined by means of a (3-(4,5-dimethylthiazol-2-yl)-2,5-diphenyl tetrazolium bromide assay, using a kit commercially available from Promega Benelux (Leyden, The Netherlands). COS-7 monkey fibroblast cell survival was expressed as the amount of dye reduction relative to that of the untreated control cells. The titrated liposomes are not toxic on COS-7 cells, as determined by the Cytotox 96 non-radioactive cytotoxy assay G 1780.
COS-7L cells (monkey fibroblasts) were grown in DMEM supplemented with 10% heat inactivated foetal bovine serum and penicellin 100 IU/mL-streptomycin 100 μg/mL, and were maintained at 37° C. in a humidified 5% incubator. One day prior to the transfection experiment, the cells were seeded in a 24-well culture dish and allowed to reach at least 80% confluency.
as §1

[4] = Critical micellar concentration by surface tension (langmuir balance); format: physicochemical; conditions: 25° C.
Description: The amidinium salt of example 9 was dissolved at various concentrations in either water pH 7.0, PB (20 mM phosphate, pH 7.3) or in PBS (20 mM phosphate buffer, 150 mM NaCl, pH 7.3).
A langmuir balance (Krüss K12) was used to measure the surface tension of a solution of increasing amino-amidine concentration. […] The corresponding concentration was taken as CMC.
To determine the effect of protamine sulfate on the CMC protamine sulfate (PS) was added at a final concentration of 0.2 mg/mL to solutions of increasing concentration of the amidinium salt of Example 9.

Row | SMILES | transfection efficiencies [1] [%] | β-gal relative activity [2] [%] | Toxicity [3] | CMC ([4]; in PB (20 mM phosphate, pH 7.3)) [M] | CMC ([4]; in PBS (20 mM phosphate buffer, 150 mM NaCl, pH 7.3)) [M] | CMC ([4]; in PBS + protamine sulfate 0.2 mg/mL) [M] | CMC ([4]; in water pH 7.0, in M)
1 | CCCCCCCCCCCCCCN=C(CCNCCCCCCCCCCCCCC)NC(C)(C)C [DiC14iPr, N-terbutyl-N′-tetradecyl-3-tetradecyl-aminopropionamidine] | 60 to 68 | 150 | None | – | – | – | –
2 | CCCCCCCCCCCCCCN=C(CCNCCCCCCCCCCCCCC)NC(C)(C)C [Example 9, N-terbutyl-N′-tetradecyl-3-tetradecyl-aminopropionamidine] | – | – | – | 5.25e-05 | 6.75e-05 | 2e-05 | 5×10^−4
